The values that follow come from paper PMC11079024, “Identification of a family of species-selective complex I inhibitors as potential anthelmintics” (Nature Communications, 2024).

Test [1] deals with C. elegans (N2) complex I (NADH:ubiquinone oxidoreductase) (Caenorhabditis elegans, UniProt P24887+Q93873+Q94360). As to the kind of experiment: biochemical. The test is classed as biochemical. Conditions: for Log IC50 C. elegans complex I: log10 of IC50 in µM. Summed up: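 Compounds were tested against freeze-thawed isolated mitochondria (0.2 mg/mL protein). NADH:decylubiquinone activity was monitored via DCIP absorbance at 600 nm, and the initial linear slope was normalised to solvent controls.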

For another test, the system named is L1 wild-type C. elegans. As to the kind of experiment: microbe, parasite or virus in culture. The following applies: Caenorhabditis elegans.
[2] abbreviates: in vitro complex I dose response on C. elegans mitochondria, average of at least two biological replicates, fit in R (DRC), read-out: IC50 C. elegans complex I.
The mark [3] stands for this setting: wild-type (N2) mitochondria, read-out: C. elegans Complex I IC50.
Where [4] appears, read: wild-type C. elegans mitochondria, estimated from fitted dose-response curves, read-out: C. elegans Complex I IC50.
Where [5] appears, read: read-out: C. elegans KCN Survival Assay LC50, estimated from fitted dose-response curves, mean of at least two biological replicates.

The structures appear in SMILES notation. pIC50: −log10 of the molar value. Several values for one entry are separate records, joined by “and”; a condition that tells them apart may be missing. Equal values may be shown once. Read-outs that look alike come from different tables or passages of the source.

C. elegans (N2) complex I (NADH:ubiquinone oxidoreductase), sequence (Q94360 17-199): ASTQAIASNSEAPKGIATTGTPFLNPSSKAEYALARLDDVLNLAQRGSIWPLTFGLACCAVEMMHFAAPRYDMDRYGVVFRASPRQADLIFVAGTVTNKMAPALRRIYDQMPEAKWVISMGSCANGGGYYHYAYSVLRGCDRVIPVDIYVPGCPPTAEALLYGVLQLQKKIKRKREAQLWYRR
C. elegans (N2) complex I (NADH:ubiquinone oxidoreductase), sequence (P24887 whole entry): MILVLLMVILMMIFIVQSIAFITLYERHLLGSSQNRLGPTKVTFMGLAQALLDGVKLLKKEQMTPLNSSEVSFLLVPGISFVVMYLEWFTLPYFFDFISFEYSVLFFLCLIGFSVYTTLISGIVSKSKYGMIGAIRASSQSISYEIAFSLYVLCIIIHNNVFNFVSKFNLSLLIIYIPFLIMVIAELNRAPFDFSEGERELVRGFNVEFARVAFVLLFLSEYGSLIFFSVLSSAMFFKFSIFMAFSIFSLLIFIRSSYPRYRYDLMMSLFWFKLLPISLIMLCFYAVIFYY
C. elegans (N2) complex I (NADH:ubiquinone oxidoreductase), sequence (Q93873 31-482): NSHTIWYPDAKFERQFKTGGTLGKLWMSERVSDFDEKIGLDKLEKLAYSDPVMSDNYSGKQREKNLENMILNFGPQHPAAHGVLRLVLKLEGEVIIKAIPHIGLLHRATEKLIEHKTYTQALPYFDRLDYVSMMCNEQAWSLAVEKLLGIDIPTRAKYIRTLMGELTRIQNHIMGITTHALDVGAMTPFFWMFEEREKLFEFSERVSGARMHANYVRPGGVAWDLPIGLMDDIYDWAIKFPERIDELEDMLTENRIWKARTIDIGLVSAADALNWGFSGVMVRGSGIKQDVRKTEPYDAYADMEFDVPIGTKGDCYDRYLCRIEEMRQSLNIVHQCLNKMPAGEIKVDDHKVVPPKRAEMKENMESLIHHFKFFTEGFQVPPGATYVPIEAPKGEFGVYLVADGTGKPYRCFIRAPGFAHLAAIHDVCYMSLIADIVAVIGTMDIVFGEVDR

As to `Cc1nc2ccccc2n1Cc1ccc(Cl)cc1` [STK697993], the remaining activity at 0.0001 µM was determined as 93.5% in test [1] (C. elegans mitochondria, 0.0001 µM, Mean, read-out: in vitro complex I activity relative to solvent control); 90.1% in test [1] (C. elegans mitochondria, 0.0001 µM, single replicate, read-out: in vitro complex I activity relative to solvent control); 93.5% in test [1] (dose 0.0001 µM, wild-type C. elegans, mean of replicates, read-out: in vitro complex I activity relative to solvent control, Mean); 90.1% in test [1] (dose 0.0001 µM, wild-type C. elegans, single replicate, read-out: in vitro complex I activity relative to solvent control, individual replicate). Further, the remaining activity at 0.0005 µM in test [1] (C. elegans mitochondria, 0.0005 µM, Mean, read-out: in vitro complex I activity relative to solvent control) was found to be 93.4%; in test [1] (C. elegans mitochondria, 0.0005 µM, single replicate, read-out: in vitro complex I activity relative to solvent control) it was 89.1%; in test [1] (dose 0.0005 µM, wild-type C. elegans, mean of replicates, read-out: in vitro complex I activity relative to solvent control, Mean) it was 93.4%; in test [1] (dose 0.0005 µM, wild-type C. elegans, single replicate, read-out: in vitro complex I activity relative to solvent control, individual replicate), 89.1%. In addition, the remaining activity at 0.001 µM in test [1] (C. elegans mitochondria, 0.001 µM, Mean, read-out: in vitro complex I activity relative to solvent control) was determined as 92.2%; in test [1] (dose 0.001 µM, wild-type C. elegans, mean of replicates, read-out: in vitro complex I activity relative to solvent control, Mean), 92.2%. Further, the remaining activity at 0.0025 µM in test [1] (C. elegans mitochondria, 0.0025 µM, Mean, read-out: in vitro complex I activity relative to solvent control) came to 89.9%; in test [1] (dose 0.0025 µM, wild-type C. elegans, mean of replicates, read-out: in vitro complex I activity relative to solvent control, Mean), 89.9%. Also, the remaining activity at 0.005 µM in test [1] (C. elegans mitochondria, 0.005 µM, Mean, read-out: in vitro complex I activity relative to solvent control) worked out at 93.8%; in test [1] (dose 0.005 µM, wild-type C. elegans, mean of replicates, read-out: in vitro complex I activity relative to solvent control, Mean), 93.8%. For the same molecule, the remaining activity at 0.013 µM in test [1] (C. elegans mitochondria, 0.013 µM, Mean, read-out: in vitro complex I activity relative to solvent control) amounted to 89.4%; in test [1] (dose 0.013 µM, wild-type C. elegans, mean of replicates, read-out: in vitro complex I activity relative to solvent control, Mean), 89.4%. In addition, the remaining activity at 0.025 µM was 79.6% in test [1] (C. elegans mitochondria, 0.025 µM, Mean, read-out: in vitro complex I activity relative to solvent control); 81.1% in test [1] (C. elegans mitochondria, 0.025 µM, single replicate, read-out: in vitro complex I activity relative to solvent control); 79.6% in test [1] (dose 0.025 µM, wild-type C. elegans, mean of replicates, read-out: in vitro complex I activity relative to solvent control, Mean); 81.1% in test [1] (dose 0.025 µM, wild-type C. elegans, single replicate, read-out: in vitro complex I activity relative to solvent control, individual replicate). For the same molecule, the remaining activity at 0.063 µM in test [1] (C. elegans mitochondria, 0.063 µM, Mean, read-out: in vitro complex I activity relative to solvent control) is 59.3%; in test [1] (C. elegans mitochondria, 0.063 µM, single replicate, read-out: in vitro complex I activity relative to solvent control), 58.9%; in test [1] (dose 0.063 µM, wild-type C. elegans, mean of replicates, read-out: in vitro complex I activity relative to solvent control, Mean), 59.3%; in test [1] (dose 0.063 µM, wild-type C. elegans, single replicate, read-out: in vitro complex I activity relative to solvent control, individual replicate), 58.9%. The remaining activity at 0.125 µM in test [1] (C. elegans mitochondria, 0.125 µM, Mean, read-out: in vitro complex I activity relative to solvent control) was 46.1%; in test [1] (C. elegans mitochondria, 0.125 µM, single replicate, read-out: in vitro complex I activity relative to solvent control) it was 47%; in test [1] (dose 0.125 µM, wild-type C. elegans, mean of replicates, read-out: in vitro complex I activity relative to solvent control, Mean), 46.1%; in test [1] (dose 0.125 µM, wild-type C. elegans, single replicate, read-out: in vitro complex I activity relative to solvent control, individual replicate), 47%. Also, the remaining activity at 0.313 µM in test [1] (C. elegans mitochondria, 0.313 µM, Mean, read-out: in vitro complex I activity relative to solvent control) was 24.1%; in test [1] (C. elegans mitochondria, 0.313 µM, single replicate, read-out: in vitro complex I activity relative to solvent control), 23.6%; in test [1] (dose 0.313 µM, wild-type C. elegans, mean of replicates, read-out: in vitro complex I activity relative to solvent control, Mean), 24.1%; in test [1] (dose 0.313 µM, wild-type C. elegans, single replicate, read-out: in vitro complex I activity relative to solvent control, individual replicate), 23.6%. Moreover, the remaining activity at 0.625 µM in test [1] (C. elegans mitochondria, 0.625 µM, Mean, read-out: in vitro complex I activity relative to solvent control) amounted to 15.5%; in test [1] (C. elegans mitochondria, 0.625 µM, single replicate, read-out: in vitro complex I activity relative to solvent control) it was 16.8%; in test [1] (dose 0.625 µM, wild-type C. elegans, mean of replicates, read-out: in vitro complex I activity relative to solvent control, Mean) it was 15.5%; in test [1] (dose 0.625 µM, wild-type C. elegans, single replicate, read-out: in vitro complex I activity relative to solvent control, individual replicate), 16.8%. For the same molecule, the remaining activity at 1.5 µM in test [1] (C. elegans mitochondria, 1.5 µM, Mean, read-out: in vitro complex I activity relative to solvent control) came out at 6.88%; in test [1] (dose 1.5 µM, wild-type C. elegans, mean of replicates, read-out: in vitro complex I activity relative to solvent control, Mean), 6.88%. Besides, the remaining activity at 3 µM is 4.54% in test [1] (C. elegans mitochondria, 3 µM, Mean, read-out: in vitro complex I activity relative to solvent control) and 4.54% in test [1] (dose 3 µM, wild-type C. elegans, mean of replicates, read-out: in vitro complex I activity relative to solvent control, Mean). The remaining activity at 15 µM in test [1] (C. elegans mitochondria, 15 µM, Mean, read-out: in vitro complex I activity relative to solvent control) is 3.15%; in test [1] (dose 15 µM, wild-type C. elegans, mean of replicates, read-out: in vitro complex I activity relative to solvent control, Mean), 3.15%. For the same molecule, the remaining activity at 37.5 µM in test [1] (C. elegans mitochondria, 37.5 µM, Mean, read-out: in vitro complex I activity relative to solvent control) came to 1.66%; in test [1] (dose 37.5 µM, wild-type C. elegans, mean of replicates, read-out: in vitro complex I activity relative to solvent control, Mean), 1.66%. Moreover, the remaining activity at 75 µM in test [1] (C. elegans mitochondria, 75 µM, Mean, read-out: in vitro complex I activity relative to solvent control) amounted to 1.29%; in test [1] (dose 75 µM, wild-type C. elegans, mean of replicates, read-out: in vitro complex I activity relative to solvent control, Mean) it was 1.29%. Moreover, the “in vitro complex I activity relative to solvent control, individual replicate” value is 99.582% and 83.147% and 101.146% in test [1] (dose 0.0001 µM, wild-type C. elegans, single replicate); 96.982% and 84.926% and 102.628% in test [1] (dose 0.0005 µM, wild-type C. elegans, single replicate); 93.635% and 85.360% and 84.052% and 105.930% in test [1] (dose 0.001 µM, wild-type C. elegans, single replicate); 94.908% and 85.958% and 78.987% and 99.629% in test [1] (dose 0.0025 µM, wild-type C. elegans, single replicate); 110.821% and 90.887% and 82.153% and 91.307% in test [1] (dose 0.005 µM, wild-type C. elegans, single replicate); 104.424% and 80.938% and 77.600% and 94.576% in test [1] (dose 0.013 µM, wild-type C. elegans, single replicate). The “in vitro complex I activity relative to solvent control, individual replicate” value in test [1] (dose 0.025 µM, wild-type C. elegans, single replicate) is 79.265% and 72.113% and 85.782%; in test [1] (dose 0.063 µM, wild-type C. elegans, single replicate), 58.500% and 52.939% and 67.015%; in test [1] (dose 0.125 µM, wild-type C. elegans, single replicate) it was 44.996% and 42.086% and 50.202%; in test [1] (dose 0.313 µM, wild-type C. elegans, single replicate) it was 25.635% and 20.651% and 26.550%; in test [1] (dose 0.625 µM, wild-type C. elegans, single replicate), 15.276% and 17.385% and 12.484%; in test [1] (dose 1.5 µM, wild-type C. elegans, single replicate) it was 4.958% and 1.160% and 6.055% and 15.327%. For the same molecule, the “in vitro complex I activity relative to solvent control, individual replicate” value in test [1] (dose 3 µM, wild-type C. elegans, single replicate) is 0.589% and 7.541% and 4.494% and 5.523%; in test [1] (dose 15 µM, wild-type C. elegans, single replicate) it was 6.941% and 0.000% and 2.528% and 3.137%; in test [1] (dose 37.5 µM, wild-type C. elegans, single replicate), 3.595% and 0.000% and 3.039%; in test [1] (dose 75 µM, wild-type C. elegans, single replicate), 0.000% and 3.223% and 1.928%. Moreover, the negative-log IC50 (pIC50) is 6.96 in test [1] (setting [2]); 6.96 in test [1] (setting [3]); 6.95 in test [1] (wild-type (N2) mitochondria, read-out: C. elegans complex I IC50); 6.96 in test [1] (setting [4]). In addition, the “Log IC50 C. elegans complex I” value in test [1] (C. elegans mitochondria) is reported as -0.96 µM. Besides, in the test with L1 wild-type C. elegans (read-out: C. elegans KCN Survival Assay LC50), the median lethal concentration (LC50) stood at 8.18 µM.
Turning to `CCn1c(C(C)c2ccc(CC(C)C)cc2)nc2ccccc21` (stereo not drawn) [STK951902], the negative logarithm of the IC50 (pIC50) in test [1] (setting [2]), in test [1] (setting [3]) and in test [1] (setting [4]) was 5.74 each time. Moreover, the “Log IC50 C. elegans complex I” value in test [1] (C. elegans mitochondria) was found to be 0.26 µM. Also, the median lethal concentration (LC50) with L1 wild-type C. elegans (setting [5]) is 8.7 µM.
For `CC(C)Cc1ccc(C(C)c2nc3ccccc3n2C(C)C)cc1` (stereo not drawn) [STK951903], the pIC50 is 5.38 in test [1] (setting [2]); 5.38 in test [1] (setting [3]); 5.38 in test [1] (wild-type C. elegans mitochondria, read-out: C. elegans Complex I IC50). In addition, the “Log IC50 C. elegans complex I” value in test [1] (C. elegans mitochondria) is recorded as 0.62 µM. For the same molecule, in the test with L1 wild-type C. elegans (setting [5]), the median lethal concentration (LC50) is 25.1 µM.
As for `C=CCn1c(C(C)c2ccc(CC(C)C)cc2)nc2ccccc21` (stereo not drawn) [STL020755], the negative-log IC50 (pIC50) in test [1] (setting [2]), in test [1] (setting [3]) and in test [1] (setting [4]) was 5.64 throughout. Also, the “Log IC50 C. elegans complex I” value in test [1] (C. elegans mitochondria) worked out at 0.36 µM. In addition, in the test on L1 wild-type C. elegans (setting [5]), the LC50 was 9.97 µM.
Turning to `c1ccc(CCCCCCCCCCc2nc3ccccc3[nH]2)cc1` [STL442376], the pIC50 in test [1] (setting [2]) and in test [1] (setting [4]) was 5.63 in each case. In addition, the “Log IC50 C. elegans complex I” value in test [1] (C. elegans mitochondria) was determined as 0.37 µM. Further, the median lethal concentration (LC50) in the test on L1 wild-type C. elegans (setting [5]) was 5.61 µM.
